The assay in a line: Binding affinity to mouse brain tubulin assessed as dissociation constant by SPR analysis.

For the compound `O=[N+]([O-])CCc1cccc2ccccc12`, the Kd was 80.9 µM.

Usually Kd stands for the concentration at which binding is half-saturated.

These data come from ChEMBL document CHEMBL6134834, “Aromatic nitroolefin with inhibition efficacy in triple-negative breast cancer cells by dual targeting RXRα and tubulins” (Eur J Med Chem, 2025).
